BigSolDB 2.1

O=S(=O)([N-]Cl)c1ccccc1.[Na+]
solubility (mole fraction)
Details	in ethanol	in n-propanol	in sec-butanol	in water
278 K	0.0164	0.00195	0.00185	0.0074
283 K	0.0193	0.00348	0.00228	0.00829
288 K	0.0224	0.00536	0.00287	0.0102
293 K	0.0264	0.00778	0.00383	0.0127
298 K	0.031	0.0106	–	0.0158
298.4 K	–	–	0.00481	–
303.1 K	–	0.0142	–	0.0192
303.2 K	0.0364	–	0.00585	–
308 K	0.0422	–	0.00706	–
308.2 K	–	0.0188	–	0.0241
313 K	0.0486	0.0245	0.0091	0.0316
318 K	0.0561	0.0307	0.0117	0.0421
323 K	0.066	0.0378	0.015	0.0554

Cc1ccc(S(=O)(=O)[N-]Cl)cc1.[Na+]
solubility (mole fraction)
Details	in ethanol	in n-propanol	in sec-butanol	in water
278 K	0.02	0.00503	0.00101	0.00684
283 K	0.0221	0.00636	0.00135	0.008
288 K	0.0244	0.00776	0.00201	0.00955
293 K	0.0268	0.00932	0.00322	0.0114
298 K	0.0299	0.0109	–	0.0138
298.4 K	–	–	0.00464	–
303.1 K	–	0.013	–	0.0171
303.2 K	0.034	–	0.00595	–
308 K	0.0388	–	0.00723	–
308.2 K	–	0.0156	–	0.0218
313 K	0.0441	0.0191	0.00881	0.0284
318 K	0.0499	0.0235	0.0114	0.037
323 K	0.0564	0.0291	0.0141	0.0477
